Results as given in patent publication US20250215039A1, “NUCLEOSIDES FOR TREATING CANCER” (PRIMEFOUR THERAPEUTICS, INC., priority 2022, published 2025).
Where two headings read alike, the source gives them in different places.

Test system: cancer cell lines
Test: Cancer cell proliferation activity (CellTiterGlo, 72 h)
Type: cell-based
Conditions: 72 h, 72 h, read-out: IC50
In short: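 Cells seeded overnight at 37 °C, then dosed with compound at 0.1% final DMSO and incubated 72 h at 37 °C (5% or 10% CO2 by medium).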

IC50 (5637 cell line (bladder)): 220 nM
IC50 (AS49 cell line (lung)): 240 nM
IC50 (CLS439 cell line (bladder)): 610 nM
IC50 (HS729 cell line (muscle)): 210 nM
IC50 (JAR cell line (placenta)): 50 nM
IC50 (Homo sapiens, 22Rv1, 72 h, 22RV1 cell line (prostate)): 220 nM
IC50 (Homo sapiens, 786-0, 72 h, 786O cell line (kidney)): 110 nM
IC50 (Homo sapiens, A204, 72 h, A204 cell line (muscle)): 70 nM
IC50 (Homo sapiens, A673, 72 h, A673 cell line (bone)): 570 nM
IC50 (Homo sapiens, A2780, 72 h, A2780 cell line (ovary)): 200 nM
IC50 (Homo sapiens, A-375, 72 h, A375 cell line (skin)): 140 nM
IC50 (Homo sapiens, A-431, 72 h, A431 cell line (skin)): 70 nM
IC50 (Homo sapiens, ACHN, ACHN cell line (kidney)): 280 nM
IC50 (Homo sapiens, ASPC1, 72 h, ASPC1 cell line (pancreas)): 50 nM
IC50 (Homo sapiens, BT-20, 72 h, BT20 cell line (breast)): 100 nM
IC50 (Homo sapiens, BXPC-3, 72 h, BXPC3 cell line (pancreas)): 210 nM
IC50 (Homo sapiens, C-33-A, C33A cell line (cervical)): 190 nM
IC50 (Homo sapiens, CAKI-1, 72 h, CAKI1 cell line (kidney)): 10 nM
IC50 (Homo sapiens, COLO 205, 72 h, COLO205 cell line (colon)): 260 nM
IC50 (Homo sapiens, COLO-678, 72 h, COLO678 cell line (colon)): 390 nM
IC50 (Homo sapiens, Ca-Ski, CASKI cell line (cervical)): 60 nM
IC50 (Homo sapiens, Caco-2, 72 h, CACO2 cell line (colon)): 280 nM
IC50 (Homo sapiens, Calu-6, 72 h, CALU6 cell line (lung)): 60 nM
IC50 (Homo sapiens, DLD-1, 72 h, DLD1 cell line (colon)): 260 nM
IC50 (Homo sapiens, DU-145, 72 h, DU145 cell line (prostate)): 20 nM
IC50 (Homo sapiens, EFO-21, 72 h, EFO21 cell line (ovary)): 130 nM
IC50 (Homo sapiens, EJ-28, 72 h, EJ28 cell line (bladder)): 90 nM
IC50 (Homo sapiens, Granta-519, 72 h, GRANTA-519 cell line (hematological)): 560 nM
IC50 (Homo sapiens, HCT-15, 72 h, HCT15 cell line (colon)): 300 nM
IC50 (Homo sapiens, HCT-116, 72 h, HCT116 cell line (colon)): 230 nM
IC50 (Homo sapiens, HEK293, 72 h, HEK293 cell line (kidney)): 140 nM
IC50 (Homo sapiens, HL-60, 72 h, HL-60 cell line (hematological)): 70 nM
IC50 (Homo sapiens, HT-29, 72 h, HT29 cell line (colon)): 160 nM
IC50 (Homo sapiens, HT-1080, 72 h, HT1080 cell line (connective tissue)): 720 nM
IC50 (Homo sapiens, HeLa, HELA cell line (cervical)): 110 nM
IC50 (Homo sapiens, HepG2, 72 h, HEPG2 cell line (liver)): 110 nM
IC50 (Homo sapiens, Hs-578T, HS578T cell line, breast): 90 nM
IC50 (Homo sapiens, IGROV-1, 72 h, IGROV1 cell line (ovary)): 50 nM
IC50 (Homo sapiens, IMR-90, 72 h, IMR90 cell line, lung): 150 nM
IC50 (Homo sapiens, J82, 72 h, J82 cell line (bladder)): 150 nM
IC50 (Homo sapiens, JEG-3, 72 h, JEG3 cell line (placenta)): 40 nM
IC50 (Homo sapiens, JIMT-1, 72 h, JIMT1 cell line (breast)): 20 nM
IC50 (Homo sapiens, K562, 72 h, K-562 cell line (hematological)): 500 nM
IC50 (Homo sapiens, Kasumi 1, 72 h, KASUMI-1 cell line (hematological)): 20 nM
IC50 (Homo sapiens, L-363, 72 h, L-363 cell line (hematological)): 40 nM
IC50 (Homo sapiens, LoVo, LOVO cell line (colon)): 40 nM
IC50 (Homo sapiens, MCF7, 72 h, MCF7 cell line (breast)): 2400 nM
IC50 (Homo sapiens, MDA-MB-231, 72 h, MDAMB231 cell line (breast)): 570 nM
IC50 (Homo sapiens, MDA-MB-435, 72 h, MDAMB435 cell line (skin)): 250 nM
IC50 (Homo sapiens, MDA-MB-436, 72 h, MDAMB436 cell line (breast)): 70 nM
IC50 (Homo sapiens, MDA-MB-468, 72 h, MDAMB468 cell line (breast)): 100 nM
IC50 (Homo sapiens, MG-63, 72 h, MG63 cell line (bone)): 2360 nM
IC50 (Homo sapiens, MHH-ES-1, 72 h, MHHES1 cell line (bone)): 120 nM
IC50 (Homo sapiens, MIA PaCa-2, 72 h, MIAPACA2 cell line (pancreas)): 2770 nM
IC50 (Homo sapiens, MINO, MINO cell line (hematological)): 30 nM
IC50 (Homo sapiens, MV4-11, 72 h, MV4-11 cell line (hematological)): 30 nM
IC50 (Homo sapiens, NCI-H23, 72 h, NCI-H23 cell line (lung)): 70 nM
IC50 (Homo sapiens, NCI-H82, 72 h, NCIH82 cell line (lung)): 70 nM
IC50 (Homo sapiens, NCI-H292, 72 h, NCIH292 cell line (lung)): 470 nM
IC50 (Homo sapiens, NCI-H460, 72 h, NCIH460 cell line (lung)): 150 nM
IC50 (Homo sapiens, OVCAR-3, 72 h, OVCAR3 cell line (ovary)): 80 nM
IC50 (Homo sapiens, OVCAR-4, 72 h, OVCAR4 cell line (ovary)): 130 nM
IC50 (Homo sapiens, PANC-1, 72 h, PANC1 cell line (pancreas)): 2820 nM
IC50 (Homo sapiens, PC-3, 72 h, PC3 cell line (prostate)): 130 nM
IC50 (Homo sapiens, PLC-PRF-5, 72 h, PLCPRF5 cell line (liver)): 630 nM
IC50 (Homo sapiens, Panc1005, 72 h, PANC1005 cell line (pancreas)): 130 nM
IC50 (Homo sapiens, RD, RD cell line (muscle)): 190 nM
IC50 (Homo sapiens, Ramos, RAMOS cell line (hematological)): 80 nM
IC50 (Homo sapiens, SAOS-2, 72 h, SAOS2 cell line (bone)): 100 nM
IC50 (Homo sapiens, SF-268, 72 h, SF268 cell line (brain)): 670 nM
IC50 (Homo sapiens, SF-295, 72 h, SF295 cell line (brain)): 440 nM
IC50 (Homo sapiens, SK-BR-3, 72 h, SKBR3 cell line (breast)): 10 nM
IC50 (Homo sapiens, SK-HEP1, 72 h, SKHEP1 cell line (liver)): 190 nM
IC50 (Homo sapiens, SK-LMS-1, 72 h, SKLMS1 cell line (uterus)): 90 nM
IC50 (Homo sapiens, SK-MEL-5, 72 h, SKMEL5 cell line, skin): 420 nM
IC50 (Homo sapiens, SK-MEL-28, 72 h, SKMEL28 cell line (skin)): 150 nM
IC50 (Homo sapiens, SK-N-AS, SKNAS cell line (brain)): 160 nM
IC50 (Homo sapiens, SK-N-SH, SKNSH cell line (brain)): 140 nM
IC50 (Homo sapiens, SK-OV-3, 72 h, SKOV3 cell line (ovary)): 100 nM
IC50 (Homo sapiens, SNB-75, 72 h, SNB75 cell line (brain)): 240 nM
IC50 (Homo sapiens, SU-DHL10, 72 h, SU-DHL-10 cell line (hematological)): 200 nM
IC50 (Homo sapiens, SU-DHL-6, 72 h, SU-DHL-6 cell line (hematological)): 50 nM
IC50 (Homo sapiens, SW-620, 72 h, SW620 cell line (colon)): 90 nM
IC50 (Homo sapiens, T-24, 72 h, T24 cell line (bladder)): 140 nM
IC50 (Homo sapiens, TE-671, 72 h, TE671 cell line (muscle)): 620 nM
IC50 (Homo sapiens, THP-1, 72 h, THP-1 cell line (hematological)): 980 nM
IC50 (Homo sapiens, U2OS, U2OS cell line (bone)): 80 nM
IC50 (Homo sapiens, U-87 MG, U87MG cell line (brain)): 380 nM
IC50 (Homo sapiens, UMUC3, 72 h, UMUC3 cell line (bladder)): 460 nM
IC50 (Homo sapiens, UO-31, 72 h, UO31 cell line (kidney)): 50 nM
IC50 (Homo sapiens, WSU-NHL, WSU-NHL cell line (hematological)): 40 nM
IC50 (MT-3, 72 h, MT3 cell line (breast)): 100 nM
IC50 (NCI-H358M, NCIH358M cell line (lung)): 150 nM
IC50 (PBMC, PBMC (hematological)): > 50000 nM
IC50 (RD-ES, RDES cell line (bone)): 60 nM
Structure (SMILES): CC[C@]1(CO)O[C@@H](n2cnc3c(N)nc(F)nc32)[C@H](O)[C@@H]1O [Cpd. No. 173, (2R,3S,4R,5R)-5-(6-amino-2-fluoro-9H-purin-9-yl)-2-ethyl-2-(hydroxymethyl)tetrahydrofuran-3,4-diol]
